According to patent publication US9340577B2, “HLA binding motifs and peptides and their uses” (priority 1992, dated 2016):
Read-outs that look alike come from different tables or passages of the source. No end group written: not given here.

Tests used:
B*0702 (B*0701) = B*0702 (B*0701) (Homo sapiens, UniProt P01889); assay: biochemical; assay type: binding; conditions: for B*0701 binding: Table 25, given as whole numbers, no unit
B*5401 = B*5401 (Homo sapiens, UniProt P01889, A329T/C349S/D138N/D201E/E176V/E187T/E204Q/E69G/I76V/K202T/L119W/R155S/R180L/S121T/S35A/S48A/V127L/V306I/V36M/Y140L); assay: biochemical
B*0701 = B*0701 (Homo sapiens, UniProt P01889); assay: biochemical
HLA-A*0201 (HLA-A2.1) = HLA-A*0201 (HLA-A2.1) (Homo sapiens, UniProt P04439, D140Y/D185E/D98H/E176V/E277Q/G131W/G231S/I119V/I121R/I166T/I218V/L300P/L318F/N151K/N90K/P208A/P217A/Q86G/Q94H/R138H/R169H/T345S); assay: biochemical; assay type: binding
HLA-A24 = assay type: binding, human
A*2601 = A*2601 (Homo sapiens, UniProt P04439, A114D/A173T/A270S/D101N/D185E/E277Q/E87N/F33Y/G231S/I121R/I218V/K168Q/L180W/L300P/L318F/P208A/P217A/Q86R/Q94H/R138Q/S129P/T187R/T323A/T345S/V100A/V358M); assay: biochemical; assay type: binding
HLA-A1 (A*0101) = HLA-A1 (A*0101) (Homo sapiens, UniProt P04439, A114D/A174V/A182V/D101N/D185E/E176A/E190D/L180R/Q94H/R68K/S129P/T187R/V100A/V91M/W191G); assay: biochemical; assay type: binding
A*3002 = A*3002 (Homo sapiens, UniProt P04439, D101N/D140H/D185E/E176R/F33S/G80R/H175R/K168Q/Q94H/R138E/R41S/V100E); assay: biochemical; assay type: binding
A*2902 = A*2902 (Homo sapiens, UniProt P04439, A270S/D101N/D185E/E176V/E277Q/E87Q/F33T/G231S/H175R/I121M/I218V/I322F/K168Q/L300P/L318F/M331R/P208A/P217A/Q86L/T323A/T345S/V100A/V358M); assay: biochemical; assay type: binding
[1] = B*0701 (nM), Binding of peptides to B7-like supermotif alleles, Table 36

FAMPNFYTL
B*0701 binding (B*0702 (B*0701)): 0

CC(C)C[C@H](NC(=O)[C@@H]1CCCN1C(=O)[C@H](CS)NC(=O)[C@H](CO)NC(=O)[C@@H]1CCCN1C(=O)[C@@H](N)CO)C(=O)N[C@@H](CCC(=O)O)C(=O)N[C@@H](CCCNC(=N)N)C(=O)N[C@@H](Cc1ccccc1)C(=O)N[C@@H](C)C(=O)O [16.202]
IC50 (B*5401): 2.45 µM

GSRAHSSHL
B*0701 binding (B*0702 (B*0701)): 0

CC[C@H](C)[C@H](NC(=O)[C@H](CC(=O)O)NC(=O)[C@H](CCC(N)=O)NC(=O)[C@H](CC(C)C)NC(=O)[C@@H](NC(=O)[C@H](C)NC(=O)[C@H](CCCCN)NC(=O)[C@@H]1CCCN1C(=O)CN)[C@@H](C)O)C(=O)O [15.102]
IC50 (B*0701; [1]): 13500 nM

MPRGVVVTL
B*0701 binding (B*0702 (B*0701)): 3

VPVKLKPGM [15.074]
IC50 (B*0701; [1]): 18000 nM

CC[C@H](C)[C@H](N)C(=O)N1CCC[C@H]1C(=O)N[C@@H](CC(=O)O)C(=O)N[C@@H](CO)C(=O)N[C@H](C(=O)N[C@@H](CCC(N)=O)C(=O)N[C@@H](CC(=O)O)C(=O)N[C@@H](CO)C(=O)N[C@@H](CC(C)C)C(=O)O)[C@@H](C)CC [15.174]
IC50 (B*0701; [1]): 2460 nM

CC(C)C[C@H](NC(=O)[C@H](Cc1ccc(O)cc1)NC(=O)[C@@H]1CCCN1C(=O)[C@@H](N)Cc1ccccc1)C(=O)N[C@H](C(=O)N[C@@H](C)C(=O)N[C@@H](Cc1ccc(O)cc1)C(=O)N[C@@H](CCC(N)=O)C(=O)N[C@@H](C)C(=O)O)C(C)C [16.012]
IC50 (B*5401): 0.0012 µM
IC50 (B*0701; [1]): 18000 nM

QPDKSESEL [15.092]
IC50 (B*0701; [1]): 9000 nM

NPAEKLRHL [15.105]
IC50 (B*0701; [1]): 509 nM

CC(C)C[C@H](NC(=O)[C@@H](NC(=O)[C@H](CCCNC(=N)N)NC(=O)[C@@H]1CCCN1C(=O)[C@@H](N)CO)[C@@H](C)O)C(=O)N[C@@H](CC(N)=O)C(=O)N[C@@H](C)C(=O)N[C@@H](Cc1c[nH]c2ccccc12)C(=O)N[C@H](C(=O)O)C(C)C [15.071]
IC50 (B*5401): 20.8 µM
IC50 (B*0701; [1]): 9.8 nM

IPFPIVRYL
B*0701 binding (B*0702 (B*0701)): 0

SPIETVPVKL [15.253]
IC50 (B*0701; B*0701 (nM), binding of B7-like supermotif 10-mer peptides to purified HLA-B*0701): 1960 nM

IPYSPLSPKV [15.347]
IC50 (B*5401): 0.723 µM

1292.2 (APTLWARMII) [Peptide 1292.2]
B*0702 binding (B*0702 (B*0701); Table 30, unit not given): 0.39

NPYNTPVFAI [15.255]
IC50 (B*5401): 6.6 µM

CILESCFRAVI
binding to HLA-A2.1 (column 3; no allele head shown for these rows) (HLA-A*0201 (HLA-A2.1)): 0.0017
B*0701 binding (B*0702 (B*0701)): 0
binding to HLA-A24 (column 6; no allele head shown for these rows) (HLA-A24): 0.0008

CC[C@H](C)[C@H](NC(=O)[C@@H](NC(=O)[C@H](Cc1ccccc1)NC(=O)[C@H](CC(N)=O)NC(=O)[C@@H](NC(=O)[C@@H](NC(=O)[C@H](CS)NC(=O)[C@@H]1CCCN1C(=O)[C@@H](N)Cc1ccc(O)cc1)[C@@H](C)O)C(C)C)[C@@H](C)O)C(=O)N[C@@H](Cc1ccccc1)C(=O)O [15.225]
IC50 (B*0701; [1]): 1520 nM

EPAADGVGA [16.020]
IC50 (B*5401): 13 µM

SPTPLLYRL [15.053]
IC50 (B*0701): 2300 nM

1PYPIVRICL (IPYPIVRKL)
B*0701 binding (B*0702 (B*0701)): 1

CC(C)C[C@H](NC(=O)[C@H](CO)NC(=O)[C@H](CCCNC(=N)N)NC(=O)[C@H](CC(C)C)NC(=O)[C@H](CO)NC(=O)[C@H](C)NC(=O)[C@H](CC(C)C)NC(=O)[C@@H]1CCCN1C(=O)[C@@H](N)Cc1ccc(O)cc1)C(=O)O [15.088]
IC50 (B*0701; [1]): 5.5 nM

CC(C)C[C@H](NC(=O)[C@H](CC(C)C)NC(=O)[C@H](CC(C)C)NC(=O)[C@@H]1CCCN1C(=O)[C@H](C)N)C(=O)N[C@@H](C)C(=O)N[C@@H](CCCNC(=N)N)C(=O)N[C@@H](C)C(=O)N[C@@H](C)C(=O)O [16.032]
IC50 (B*5401): 0.0026 µM

CC[C@H](C)[C@H](NC(=O)[C@H](C)NC(=O)[C@@H]1CCCN1C(=O)[C@@H](N)CO)C(=O)N[C@@H](Cc1ccccc1)C(=O)N[C@@H](CCC(N)=O)C(=O)N[C@@H](CO)C(=O)N[C@@H](CO)C(=O)N[C@@H](CCSC)C(=O)O [15.081]
IC50 (B*5401): 8 µM
IC50 (B*0701; [1]): 13 nM

YPKVKQWPL
B*0701 binding (B*0702 (B*0701)): 0

VPHPNIEEVA [16.189]
IC50 (B*5401): 0.036 µM

LPENNVLSPL
B*0701 binding (B*0702 (B*0701)): 0

TPTLHEYML [15.096]
IC50 (B*0701; [1]): 51 nM

RTDPVTLDVLY [Peptide 9012.0168]
IC50 (A*2601): 2.52 µM
IC50 (HLA-A1 (A*0101)): 0.0067 µM
IC50 (A*3002): 0.01 µM
IC50 (A*2902): 1.31 µM

ITSPPDSSY [Peptide 9012.0118]
IC50 (A*2601): 0.462 µM
IC50 (HLA-A1 (A*0101)): 1.72 µM
IC50 (A*3002): 0.0088 µM
IC50 (A*2902): 16.5 µM
